Among the data in US20030176479A1, “Use of selective EP4 receptor agonists for the treatment of liver failure, loss of patency of the ductus arteriosus, glaucoma or ocular hypertension” (priority 2002, published 2003) are IC50, EC50 and Kd values, retold here.

One test concerns the target T1, human EP1 receptor (Homo sapiens, UniProt P34995).
T1 construct: expressed in transfected cells
T1 sequence (P34995 1-402): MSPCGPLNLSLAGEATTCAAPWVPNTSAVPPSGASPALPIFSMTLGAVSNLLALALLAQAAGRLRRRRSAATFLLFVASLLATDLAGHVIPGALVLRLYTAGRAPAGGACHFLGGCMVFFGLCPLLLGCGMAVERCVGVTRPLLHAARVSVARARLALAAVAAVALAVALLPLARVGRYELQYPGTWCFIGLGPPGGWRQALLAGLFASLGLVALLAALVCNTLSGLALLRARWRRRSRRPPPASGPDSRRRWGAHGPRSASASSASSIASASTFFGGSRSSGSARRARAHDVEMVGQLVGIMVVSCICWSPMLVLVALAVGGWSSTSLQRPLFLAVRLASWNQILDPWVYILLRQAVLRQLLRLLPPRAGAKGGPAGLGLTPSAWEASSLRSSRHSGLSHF
The experiment in a line: Human EP1 receptor binding assay (3H-PGE2 displacement, 293S cell membranes). The settings on record: displacement of 3H-prostaglandin E2, 293S membranes, 1 hour at 25° C. From the text: (§1) The compounds of Formula I or II, which are useful in the methods of the present invention, bind to the prostaglandin E2 type 4 receptor (EP4 receptor). The full-length coding sequence for the human EP1 receptor is made in accordance with the procedure in Funk et al., Journal of Biological Chemistry, 1993, 268, 26767-26772. The full-length rat EP2 receptor is made in accordance with the procedure in Nemoto et al., Prostaglandins and other Lipid Mediators, 1997, 54, 713-725. The full-length coding sequence for the human EP3 receptor is made in accordance with the procedure in Regan et al., British Journal of Pharmacology, 1994, 112, 377-385. The full-length coding sequence for the rat EP4 receptor is made in accordance with the procedure in Sando et al., Biochem. Biophys. Res. Comm. 1994, 200,1329-1333. These full-length receptors are used to prepare 293S cells expressing the human EP1, rat EP2, human EP3 or rat EP4 receptors.
(§2) Human EP1, Rat EP2, Human EP3, Rat EP4 Receptor Binding Assay
(§3) The full-length receptors described above are used to prepare 293S cells expressing the EP1, EP2, EP3, and EP4 receptors.
(§4) 293S cells expressing either the human EP1, rat EP2, human EP3 or rat EP4 prostaglandin E2 receptors are generated according to methods known to those skilled in the art. Typically, PCR (polymerase chain reaction) primers corresponding to the 5′ and 3′ ends of the published full length receptor are made according to the well known methods disclosed above and are used in an RT-PCR (reverse transcriptase-polymerase chain reaction) reaction using the total RNA from human kidney (for EP1), rat kidney (for EP2), human lung (for EP3), or rat kidney (EP4) as a source. PCR products are cloned by the TA overhang method into pCR2.1 (Invitrogen Corporation, Carlsbad, Calif.) and identity of the cloned receptor is confirmed by DNA sequencing. For expression of the rat EP2 receptor, the confirmed cDNA is subcloned into the mammalian expression vector PURpCl, a vector generated by subcloning the selectable marker for puromycin resistance into the mammalian expression vector pCl (Promega, Madison, Wis.)
(§5) 293S cells are transfected with either the cloned human EP1 or EP3 receptor in pcDNA3 by electroporation. Stable cell lines expressing either the human EP1 or EP3 receptor are established following selection of transfected cells with G418. 293S cells are transfected with the cloned rat EP2 receptor in PURpCi by lipid mediated transfection. Stable cell lines expressing the rat EP2 receptor are established following selection of transfected cells with puromycin. 293S cells are transfected with the cloned rat EP4 receptor in pcDNA3 by lipid mediated transfection. Stable cell lines expressing the rat EP4 receptor are established following selection of transfected cells with Geneticin® (Invitrogen, Carlsbad, Calif.).
(§6) Clonal cell lines expressing the maximal number of receptors are chosen following a whole cell ^3H-PGE2 binding assay using unlabeled PGE2 as a competitor.
(§7) Membrane Preparation: All operations are performed at 4° C. Transfected cells expressing either prostaglandin E2 type 1, type 2, type 3, or type 4 (EP1, EP2, EP3, or EP4, respectively) receptors are harvested and suspended to 2 million cells per ml in Buffer A [50 mM Tris-HCl (pH 7.4), 10 mM MgCI2, 1 mM EDTA, 1 mM Pefabloc peptide, (Boehringer Mannheim Corp., Indianapolis, Ind.), 10 uM Phosporamidon peptide, (Sigma, St. Louis, Mo.), 1 uM pepstatin A peptide, (Sigma, St. Louis, Mo.), 10 uM elastatinal peptide, (Sigma, St. Louis, Mo.), 100 uM antipain peptide, (Sigma, St. Louis, Mo.)]. The cells are lysed by sonification with a Branson Sonifier (Branson Ultrasonics Corporation, Danbury, Conn.) in 2 fifteen-second bursts. Unlysed cells and debris are removed by centrifugation at 100 ×g for 10 min. Membranes are then harvested by centrifugation at 45,000×g for 30 minutes. […]
For orientation: Loss of bound radioactivity is the signal in a displacement assay; it reports binding, not function.

Test [1] addresses T2, rat EP4 receptor (Rattus norvegicus, UniProt P43114).
T2 construct: expressed in transfected cells
Put plainly: Rat EP4 receptor binding assay (3H-PGE2 displacement, 293S cell membranes). The conditions noted are these: displacement of 3H-prostaglandin E2, 293S membranes, 1 hour at 25° C.
Source text: as §1, §2, §3, §4, §5, §6, §7

Another test deals with T3, rat EP2 receptor (Rattus norvegicus, UniProt Q62928).
T3 construct: The full-length rat EP2 receptor is made in accordance with the procedure in Nemoto et al; expressed in transfected cells
T3 sequence (Q62928 whole entry): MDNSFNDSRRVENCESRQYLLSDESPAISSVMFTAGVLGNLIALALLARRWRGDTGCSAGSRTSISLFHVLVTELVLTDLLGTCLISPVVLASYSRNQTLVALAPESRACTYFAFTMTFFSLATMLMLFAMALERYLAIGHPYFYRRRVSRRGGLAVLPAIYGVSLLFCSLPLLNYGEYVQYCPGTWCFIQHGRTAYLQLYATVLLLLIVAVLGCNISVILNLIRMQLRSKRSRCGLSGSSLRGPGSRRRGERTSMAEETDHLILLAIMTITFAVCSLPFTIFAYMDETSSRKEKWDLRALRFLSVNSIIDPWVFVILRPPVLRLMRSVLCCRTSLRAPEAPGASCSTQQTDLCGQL
The experiment in a line: Rat EP2 receptor binding assay (3H-PGE2 displacement, 293S cell membranes). The conditions noted are these: displacement of 3H-prostaglandin E2, 293S membranes, 1 hour at 25° C.
Source text: as §1, §2, §3, §4, §5, §6, §7

For a further test, the target named is T4, human EP3 receptor (Homo sapiens, UniProt P43115).
T4 construct: expressed in transfected cells
T4 sequence (P43115 1-390): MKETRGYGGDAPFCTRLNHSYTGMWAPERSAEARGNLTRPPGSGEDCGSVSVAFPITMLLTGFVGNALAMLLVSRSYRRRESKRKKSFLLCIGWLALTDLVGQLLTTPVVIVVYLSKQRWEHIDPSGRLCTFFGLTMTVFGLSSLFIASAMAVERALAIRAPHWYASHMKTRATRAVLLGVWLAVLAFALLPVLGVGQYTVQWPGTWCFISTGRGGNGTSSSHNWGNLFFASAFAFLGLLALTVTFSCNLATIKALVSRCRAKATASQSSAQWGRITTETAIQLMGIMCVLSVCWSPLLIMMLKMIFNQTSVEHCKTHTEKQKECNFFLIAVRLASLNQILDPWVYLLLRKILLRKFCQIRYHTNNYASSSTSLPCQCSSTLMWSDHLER
The experiment in a line: Human EP3 receptor binding assay (3H-PGE2 displacement, 293S cell membranes). The settings on record: displacement of 3H-prostaglandin E2, 293S membranes, 1 hour at 25° C.
Source text: as §1, §2, §3, §4, §5, §6, §7

The target of test [2] is T2, rat EP4 receptor. The experiment in a line: Cyclic AMP elevation in 293S cell lines stably overexpressing recombinant rat EP4 receptors. The format is cell-based. The conditions noted are these: 293S cells expressing rat EP4, 1 mM IBMX, 12 minutes at 37° C.; read-out: EC50 in the cAMP (rat EP4) elevation assay. The text has this: Determination of Cyclic AMP Elevation in 293S Cell Lines Stably Overexpressing Recombinant Rat EP4 Receptors Assay
cDNA representing the complete open reading frame of the rat EP4 receptor is generated by reverse transcriptase polymerase chain reaction using oligonucleotide primers based on published sequences. The full length coding sequence for the rat EP4 receptor is made in accordance with the procedure in Sando et al., Biochem. Biophys. Res. Comm. 1994, 200, 1329-1333, and RNA from rat kidney (EP4) as templates. 293S cells are transfected with the cloned rat EP4 receptor in pcDNA3 by lipid mediated transfection. Stable cell lines expressing the rat EP4 receptor are established following selection of transfected cells with Geneticin® (Invitrogen Corporation, Carlsbad, Calif.).
(§8) Clonal cell lines expressing the maximal number of receptors are chosen following a whole cell ^3H-PGE2 binding assay using unlabeled PGE2 as a competitor. […] Constitutive expression of the receptor in parental 293-S cells is negligible. A stable cell line containing the rat EP4 receptor is grown in Dulbecco's Mosified Eagle Medium/F12 (DMEM/F12) containing 10% fetal bovine serum and G418 (500 μg/ml) to 80% confluency.
cAMP responses in the 293-S/EP4 lines are determined by detaching cells from culture flasks in 1 ml of calcium (Ca++) and magnesium (Mg++) deficient phosphate buffered saline (PBS) via vigorous pounding and then rinsing the cells with calcium (Ca++) and magnesium (Mg++) deficient phosphate buffered saline (PBS). The cells are resuspended in MEM (Minimum Essential Medium), 1% BSA (bovine serum albumin), 50 mM HEPES (N-[2-Hydroxyethyl]piperazine-N′-[2-ethanesulfonic acid]) at 37° C. The cell suspension is counted on a hemacytometer and diluted by adding MEM (Minimum Essential Medium) to a final concentration of 1×10^6 cells/ml, and adding 3-isobutyl-1-methylxanthine (IBMX) to a final concentration of 1 mM. 200 microliters of cell suspension is immediately aliquoted into individual tubes and incubated for 10 minutes, uncovered, at 37° C., 5% CO2, 95% relative humidity. The compound of Formula I or II to be tested in either dimethylsulfoxide (DMSO) or ethanol is then added to cells at 1:100 dilutions such that the final DMSO or ethanol concentration is 1%. Typically, the cells are treated with 6-8 different concentrations (in 1 log increments, such as those described below) of the compound of Formula I or II. Typical concentrations of the compound of Formula I or II in this assay are between 10^−5M to 10^−10M. For example, a six point compound dose response assay tests the compound of Formula I or II at concentrations of 10^−5M, 10^−6M, 10^−7M, 10^−8M, 10^−9M and 10^—10M. Immediately after adding the test compound, the tubes are covered, mixed by inverting two times, and incubated at 37° C. for 12 minutes. Samples are then lysed by incubation at 100° C. for 10 minutes and immediately cooled on ice for 5 minutes to approximately 4° C. Cellular debris is pelleted by centrifugation at 3500×g for 5 minutes at approximately 4° C., and cleared lysates are transferred to fresh tubes. cAMP concentrations are determined using a commercially available ^125I-cAMP radioimmunoassay (RIA) kit (NEK-033, Perkin-Elmer Life Sciences, Inc., Boston, Mass.). The cleared lysates are diluted 1:100 in cAMP RIA assay buffer (included in kit) and centrifuged again. 50 microliters of the resulting supernatant is transferred to a 12×75 mm glass tube and data is collected by scintillation counting using a Wallac Cobra II Gamma Counter (Perkin-Elmer Wallac, Inc., Gaithersburg, Md.). EC50 calculations are performed on a calculator using linear regression analysis on the linear portion of the dose response curves or using Data Fitter.

In test [3] the target is T2, rat EP4 receptor. Put plainly: Whole cell 3H-PGE2 binding, Scatchard analysis of 293S/EP4 transfectants. The settings on record: cell lines selected for compound screening. As to the method:
as §8

What is called IC50 is the point on the concentration scale where inhibition reaches its midpoint. Read a low IC50 as greater potency in that assay. By EC50 is commonly meant the midpoint of the concentration-response curve. The Kd is the concentration at which binding is half-saturated. A higher Kd goes with weaker binding.

T2 sequence (P43114 whole entry): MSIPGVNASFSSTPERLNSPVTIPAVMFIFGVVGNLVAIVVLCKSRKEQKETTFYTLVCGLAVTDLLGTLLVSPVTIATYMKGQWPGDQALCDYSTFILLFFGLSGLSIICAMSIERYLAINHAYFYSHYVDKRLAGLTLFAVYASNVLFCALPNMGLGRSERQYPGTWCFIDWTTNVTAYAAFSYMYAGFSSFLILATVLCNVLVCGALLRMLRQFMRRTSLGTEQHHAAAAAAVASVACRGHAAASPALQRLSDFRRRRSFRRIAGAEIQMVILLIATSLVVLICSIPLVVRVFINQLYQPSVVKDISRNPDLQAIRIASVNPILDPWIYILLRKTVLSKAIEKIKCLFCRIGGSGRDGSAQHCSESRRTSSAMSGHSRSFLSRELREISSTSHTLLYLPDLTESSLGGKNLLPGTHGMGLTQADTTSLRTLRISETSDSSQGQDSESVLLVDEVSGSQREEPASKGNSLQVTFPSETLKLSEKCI

On to `O=C1CCC(CCC(O)Cc2ccc(F)cc2)N1CCCCCCc1nn[nH]n1` (stereo not drawn) [Example 5, 5-[4-(4-Fluoro-phenyl)-3-hydroxy-butyl]-1-[6-(2H-tetrazol-5-yl)-hexyl]-pyrrolidin-2-one], for which the IC50 at human EP1 receptor is above 3200 nM; at rat EP4 receptor [1], 508 nM; on rat EP2 receptor, above 3200 nM; at human EP3 receptor, above 3200 nM.
As for `O=C1CCC(CCC(O)Cc2cccc(F)c2)N1CCCCCCc1nn[nH]n1` (stereo not drawn) [Example 7, 5-[4-(3-Fluoro-phenyl)-3-hydroxy-butyl]-1-[6-(2H-tetrazol-5-yl)-hexyl]-pyrrolidin-2-one], on rat EP4 receptor [2], the EC50 was determined as 200 nM. Further, the IC50 on rat EP4 receptor [1] is 96 nM; on rat EP2 receptor, above 3200 nM.
`O=C1CC[C@H](CC[C@@H](O)Cc2cccc(Cl)c2)N1CCCCCCc1nn[nH]n1` [Example 8, 5S-[4-(3-Chloro-phenyl)-3R-hydroxy-butyl]-1-[6-(2H-tetrazol-5-yl)-hexyl]-pyrrolidin-2-one]: on rat EP4 receptor [2], the EC50 was determined as 24.6 nM. Also, the figures for the IC50 at rat EP4 receptor [1] and on rat EP2 receptor were 28 nM and above 3200 nM, respectively.
Regarding `O=C(O)CCCCCCN1C(=O)CC[C@@H]1CCC(O)Cc1cccc(Oc2ccccc2)c1` (stereo partly drawn) [Example 10, 7-{2S-[3-Hydroxy-4-(3-phenoxy-phenyl)-butyl]-5-oxo-pyrrolidin-1-yl}-heptanoic acid], at rat EP4 receptor [1], the IC50 came out at 536 nM. In other words, the sub-micromolar range.
As to `CCCCC[C@H](O)/C=C/[C@H]1[C@H](O)CC(=O)[C@@H]1C/C=C\CCCC(=O)O` [PGE2, Prostaglandin E2], binding at rat EP4 receptor [3] was characterised by a dissociation constant (Kd) of 2.9 nM.
